The text below walks through data of patent publication US5985603A, “P2x receptor DNA and protein sequence” (Glaxo Group Limited, priority 1994, dated 1999).

Counter-ions that a name gives are not always drawn. Like-named read-outs stand apart in the source and are kept apart here. A value given as a limit tells only on which side of the number the result lay.

Holding throughout (type): cell-based
The target of assay [1] is T1, hP2X (Homo sapiens, UniProt P51575).
T1 construct: expressed in transfected cells; host or cells: Xenopus oocytes injected with in vitro transcribed RNA
T1 sequence (P51575 1-399): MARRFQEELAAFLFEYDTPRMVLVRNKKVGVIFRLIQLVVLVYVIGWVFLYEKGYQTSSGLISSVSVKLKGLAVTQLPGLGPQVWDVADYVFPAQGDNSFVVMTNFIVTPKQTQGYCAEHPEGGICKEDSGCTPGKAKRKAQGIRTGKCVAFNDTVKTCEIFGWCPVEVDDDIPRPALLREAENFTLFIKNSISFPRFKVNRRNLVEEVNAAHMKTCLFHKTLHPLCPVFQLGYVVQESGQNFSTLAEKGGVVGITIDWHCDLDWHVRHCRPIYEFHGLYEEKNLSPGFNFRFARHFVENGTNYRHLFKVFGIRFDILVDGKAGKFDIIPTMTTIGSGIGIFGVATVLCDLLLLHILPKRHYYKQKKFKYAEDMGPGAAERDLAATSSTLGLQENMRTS
Briefly: inward currents evoked by purinoceptor agonists in Xenopus oocytes expressing hP2X. Conditions: for relative potency: relative to ATP, from EEC50; for full agonist activity: concentration-response curves; for Emax at 100 µM: read-out: small inward current, % of the response to 100 μM ATP; for Emax: read-out: maximal response, % of the maximal ATP response. On the procedure: (§1) Human urinary bladder P2X cDNA, subcloned into the pBKCMV expression vector, was linearized with Notl, and transcribed in vitro with T3 polymerase in the presence of cap analogue m7G(5')ppp(5')G. Defolliculated Xenopus oocytes (Bertrand et al, Electrophysiology of neuronal nicotinic acetylcholine receptors expressed in Xenopus oocytes following nuclear injection of genes or cDNAs Meth Neurosci 4: 174-193 (1991)) were injected with 50 ng of human P2X in vitro transcribed RNA, and incubated at 18° C. for 2-6 days in the ND96 solution (mM): NaCl96, KCl2, MgCl2 1, CaCl2 2, sodium pyruvate 5, HEPES 5, ph 7.6-7.5, penicillin (10 U/ml), and streptomycin (10 μg/ml).
Oocytes were placed in a 1 ml chamber and superfused at 2-3 ml/min with ND96 solution with 0.1 mM BaCl2 replacing the 2 mM CaCl2 to prevent activation of endogenous calcium-activated chloride currents (Barish, A transient calcium-dependent chloride current in the immature Xenopus oocytes J Physiol 342: 309-325 (1983)). Currents were measured using a two-electrode voltage-clamp amplifier (Geneclamp Axon Instruments)at a holding potential of -60 mV. Microelectrodes were filled with 3 M KCl (0.5-2 M.OMEGA.). Data were collected using PClamp software (Axon Instruments). […] Antagonists were applied both in the superfusate and together with ATP in the U-tube solution.
Concentration response curves for purinoceptor agonists were fitted with a Hill slope of 1. […] Data are presented throughout as mean ± SEM for a given number of oocytes.

For assay [2], the target named is T1, hP2X. As to the kind of experiment: antagonist inhibition of ATP-evoked currents in Xenopus oocytes expressing hP2X. Conditions: for inhibition of inward currents evoked by 10 μM ATP: 10 μM ATP (approximately EC90); for reversibility of antagonism on washout: PPADS, P5P. The procedure: as §1
Oocytes were placed in a 1 ml chamber and superfused at 2-3 ml/min with ND96 solution with 0.1 mM BaCl2 replacing the 2 mM CaCl2 to prevent activation of endogenous calcium-activated chloride currents (Barish, A transient calcium-dependent chloride current in the immature Xenopus oocytes J Physiol 342: 309-325 (1983)). Currents were measured using a two-electrode voltage-clamp amplifier (Geneclamp Axon Instruments)at a holding potential of -60 mV. Microelectrodes were filled with 3 M KCl (0.5-2 M.OMEGA.). Data were collected using PClamp software (Axon Instruments). ATP and other purinoceptor agonists were applied by a U-tube perfusion system (Fenwick et al, A patch clamp study of bovine chromaffin cells and their sensitivity to acetylcholine J Physiol 331: 577-597 (1982)) placed close (200-500 μm) to the oocyte. […] Concentration response relationships to ATP and its analogs were determined by measuring the peak amplitude of responses to a 5 s application of agonist applied at 10 min intervals. Responses to agonists were normalized in each oocyte to the peak response evoked by 100 μM ATP; 100 μM ATP was usually applied at the beginning and at the end of an experiment to determine if there was any rundown of the response. […] Antagonists were applied both in the superfusate and together with ATP in the U-tube solution. Antagonists were superfused for 5-10 min prior to the application of ATP.
Concentration response curves for purinoceptor agonists were fitted with a Hill slope of 1. Equi-effective concentrations i.e. concentration of agonist, giving 50% of the response to 100 μM ATP, (EEC50) were determined from individual concentration response curves. […] Data are presented throughout as mean ± SEM for a given number of oocytes.

The target of assay [3] is T2, rat superior cervical ganglion P2X receptor (clone 3) (Rattus norvegicus, UniProt P51577).
T2 construct: The insert appeared to be a full length cDNA; expressed in transfected cells; host or cells: HEK293 cells transfected with pcDNA3 construct p464 (also oocytes injected with in vitro transcribed RNA)
T2 sequence (P51577 1-388): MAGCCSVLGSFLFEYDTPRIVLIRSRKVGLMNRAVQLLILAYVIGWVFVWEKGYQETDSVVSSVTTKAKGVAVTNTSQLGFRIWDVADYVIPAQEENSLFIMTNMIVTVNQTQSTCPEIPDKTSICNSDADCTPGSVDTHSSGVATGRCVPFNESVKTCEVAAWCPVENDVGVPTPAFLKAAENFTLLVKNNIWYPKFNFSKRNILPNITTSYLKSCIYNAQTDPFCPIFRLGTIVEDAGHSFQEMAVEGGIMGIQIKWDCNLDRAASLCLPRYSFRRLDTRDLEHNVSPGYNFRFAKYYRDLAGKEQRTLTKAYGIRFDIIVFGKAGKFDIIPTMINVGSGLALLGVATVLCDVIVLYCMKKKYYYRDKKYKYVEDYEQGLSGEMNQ
Briefly: functional properties of cloned P2X receptors (electrical recordings): clone 3. Conditions: for antagonist profile, clone 3 (block): Table A, concentration not given; for sensitivity of ATP-activated currents to antagonism, compared with rat vas deferens/human bladder and PC12 forms: clone 3 (FIG. 15). The procedure: HEK 293 cells were transfected by the lipofectin method (Felgner et al., Proc. Nat'l. Acad. Sci. USA 84 7413-7417 (1987)) with P2X -plasmid. DNA concentration used was 1 mg/2 ml medium placed into a 35 mm petri dish containing four 11 mm diameter coverslips on which HEK cells were placed at 10,000 cells per coverslip. […] Currents were recorded from HEK 293 cells using whole-cell recording methods and the AXOPATCH™ 200 amplifier (Axon Instruments); patch pipettes (5 M.OMEGA.) contained (mM) Cs or K aspartate 140, NaCl 5, EGTA 11, HEPES 5. The external solution was (mM) NaCl 150, KCl2, CaCl2 2, MgCl2 1, HEPES 5 and glucose 11; the pH and osmolarity of both solutions were maintained at 7.3 and 305 mosmol/l respectively. All recordings performed at room temperature. Data acquisition and analysis were performed using pCLAMP™ and AXOGRAPH™ software (Axon Instruments). […] The pH and osmolarity of the solutions were 7.4 and 295 mosmol/l respectively. For single channel measurements, a […]™ 500 amplifier and outside-out recording methods were used (Adelman et al., Neuron 9 209-216 (1992)). Wax-coated patch pipettes (5-10 M.OMEGA.) contained (mM) K-gluconate 115, HEPES 5, BAPTA 5 and MgCl2 0.5, external solution was 96 mM NaCl, 2 mM KCl, 1.8 mM CaCl2, 1 mM MgCl2, 5 mM Hepes pH 7.6, and 5 mM sodium pyruvate.
The functional characterisation of the clone illustrated in FIG. 2 (referred to herein as clone 3) was carried out by electrical recordings from transfected HEK293 cells and from oocytes injected with the in vitro transcribed RNA, as described in Example 4 for the rat vas deferens P2X receptor. Table A summarizes the main properties of clone 3 as compared to those of rat vas/human bladder cDNA clone, and the PC12 cDNA clone (provided by David Julius and Tony Brake of the University of California at San Francisco).

Take “2'-3'-O-(4-benzoylbenzol)ATP tetraethylamonium salt [BzATP]”: at hP2X [1], the “maximal response, % of the maximal ATP response” value was “about 65%” and the relative potency stood at 0.20. Moreover, the EC50 on hP2X [1] (read-out: EEC50: equieffective concentration producing an inward current equivalent to 50% of the peak response to 100 μM ATP, Hill slope of 1, mean ± SEM, n = 3-4, ATP value from mean data from all experiments) was determined as 4.2 ± 2.2 µM.

On to `Nc1nc(Cl)nc2c1ncn2[C@@H]1O[C@H](COP(=O)(O)OP(=O)(O)OP(=O)(O)O)[C@@H](O)[C@H]1O` [2chloroATP, 2-chloro-ATP tetra sodium salt], for which, at hP2X [1], the EC50 was 0.76 ± 0.1 µM, the full agonist activity entry is on record as “full agonists” and the relative potency was found to be 1.08. Besides, the “comparison of concentration-effect curves” value on hP2X [1] (ATP, 2MeSATP and 2-chloro-ATP) was “superimposable”.

With `Nc1ncnc2c1ncn2[C@@H]1O[C@H](COP(=O)([O-])OP(=O)([O-])[O-])[C@@H](O)[C@H]1O.[Na+].[Na+].[Na+]` [ADP, adenosine 5'-diphosphate sodium salt], at hP2X [1], the EC50 was 34.3 ± 16 µM, the full agonist activity entry was “full agonists” and the relative potency is 0.024.

`Nc1ncnc2c1ncn2[C@@H]1O[C@H](COP(=O)(O)O)[C@@H](O)[C@H]1O` [AMP, adenosine 5'-monophosphate sodium salt]: the Emax at 100 µM on hP2X [1] was 6.08 ± 2%.

For the compound `Nc1ncnc2c1ncn2[C@@H]1O[C@H](COP(=O)(O)OP(=O)(O)OP(=O)(O)OP(=O)(O)OP(=O)(O)OC[C@H]2O[C@@H](n3cnc4c(N)ncnc43)[C@H](O)[C@@H]2O)[C@@H](O)[C@H]1O` [AP5A, p1, p5-di [adenosine-5'] pentaphosphate trilithium salt], on hP2X [1], the EC50 was 2 ± 0.2 µM, the Emax was approximately 65% and the relative potency is 0.41.

For the compound `Nc1ncnc2c1ncn2[C@@H]1O[C@H](COP(=O)(O)OP(=O)(O)OP(O)(O)=S)[C@@H](O)[C@H]1O` [ATP-γ-S, adenosine 5'-O-(-3-thiophosphate) tetralithium salt], at hP2X [1], the EC50 was 10.6 ± 3.8 µM, the Emax was approximately 65% and the relative potency is 0.077.

On to `Nc1ncnc2c1ncn2[C@@H]1O[C@H](CO)[C@@H](O)[C@H]1O` [Adenosine], for which the Emax at 100 µM at hP2X [1] turned out to be 2.3 ± 1.5%.

On to `Cc1ncc(COP(=O)(O)O)c(C=O)c1O` [P5 P, Pyridoxal 5-phosphate monohydrate], for which, at hP2X [2], the IC50 (in general, the concentration that gives 50% inhibition) was approximately 20 µM; the “inhibition of inward currents evoked by 10 μM ATP” value was “inhibited inward currents evoked by 10 μM ATP”; the “reversibility of antagonism on washout” value is given as “readily reversible on washout”. In addition, in assay [3], the “antagonist profile, clone 3 (block)” value is given as less than 40%; the “sensitivity of ATP-activated currents to antagonism, compared with rat vas deferens/human bladder and PC12 forms” value is “much less sensitive to antagonism”.

In the case of `Cc1nc(N=Nc2ccc(S(=O)(=O)O)cc2S(=O)(=O)O)c(COP(=O)(O)O)c(C=O)c1O` [PPADS, pyridoxal phosphate 6-azophenyl 2',4'-disulphonic acid], at hP2X [2], the IC50 was approximately 1 µM, the “inhibition of inward currents evoked by 10 μM ATP” value is reported as “inhibited inward currents evoked by 10 μM ATP” and the “reversibility of antagonism on washout” value is on record as “readily reversible on washout”. In assay [3], the “antagonist profile, clone 3 (block)” value is less than 30%; the “sensitivity of ATP-activated currents to antagonism, compared with rat vas deferens/human bladder and PC12 forms” value is on record as “much less sensitive to antagonism”.

Regarding `O=c1ccn([C@@H]2O[C@H](COP(=O)(O)OP(=O)(O)OP(=O)(O)O)[C@@H](O)[C@H]2O)c(=O)[nH]1` [UTP, uridine 5'-triphosphate sodium salt], the Emax at 100 µM at hP2X [1] amounted to 3.7 ± 1.8%.

On hP2X [1], `Nc1ncnc2c1ncn2[C@@H]1O[C@H](COP(=O)(O)OP(=O)(O)CP(=O)(O)O)[C@@H](O)[C@H]1O` [d,β,γ-meATP, β,γ-methylene-D-ATP sodium salt] returned an EC50 of 24.1 ± 1.6 µM and a relative potency of 0.034.
